Experiments:
[1] = target: T1, AtMAT2 (Arabidopsis thaliana, UniProt P17562); test: X-ray crystal structure; type: binding
T1 sequence (P17562 1-392): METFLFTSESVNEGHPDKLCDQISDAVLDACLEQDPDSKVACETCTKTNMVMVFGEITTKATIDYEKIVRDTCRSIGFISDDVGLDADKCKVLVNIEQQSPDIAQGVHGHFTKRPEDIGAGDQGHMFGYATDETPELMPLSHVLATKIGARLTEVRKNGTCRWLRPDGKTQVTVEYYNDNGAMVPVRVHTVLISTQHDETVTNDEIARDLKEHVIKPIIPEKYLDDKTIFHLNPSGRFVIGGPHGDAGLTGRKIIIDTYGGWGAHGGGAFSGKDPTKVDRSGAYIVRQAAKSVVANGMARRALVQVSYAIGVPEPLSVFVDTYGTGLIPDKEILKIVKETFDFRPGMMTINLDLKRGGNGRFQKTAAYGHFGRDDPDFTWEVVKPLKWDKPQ

[2] = target: T2, AtMAT1 (Arabidopsis thaliana, UniProt P23686); test: isothermal titration calorimetry; type: binding
T2 sequence (P23686 1-393): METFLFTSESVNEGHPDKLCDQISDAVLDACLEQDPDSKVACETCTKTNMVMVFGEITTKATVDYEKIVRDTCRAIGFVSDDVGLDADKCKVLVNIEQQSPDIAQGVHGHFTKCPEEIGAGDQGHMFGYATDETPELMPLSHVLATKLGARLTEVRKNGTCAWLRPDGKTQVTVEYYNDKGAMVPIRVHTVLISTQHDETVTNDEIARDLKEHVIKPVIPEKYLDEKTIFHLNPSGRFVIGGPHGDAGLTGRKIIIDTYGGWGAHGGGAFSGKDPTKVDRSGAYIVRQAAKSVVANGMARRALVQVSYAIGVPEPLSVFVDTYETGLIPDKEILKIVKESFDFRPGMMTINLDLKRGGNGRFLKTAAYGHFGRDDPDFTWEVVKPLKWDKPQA

Kd [2] [nM]	Structure (SMILES)	X-ray crystal structure (2.00 Å, soaking) [1]
–	Nc1ncnc2c1ncn2[C@@H]1O[C@H](COP(=O)(O)CP(=O)(O)OP(=O)(O)O)[C@@H](O)[C@H]1O [AMPCPP]	inside the catalytic site both, precatalytic Met and the ATP analogue, AMPCPP, revealed the exact pre-reaction state of the enzyme
654	NCCCCNCCCN [spermidine]	–

— publication PMC8456715 (International journal of biological macromolecules, 2020)
